# Source: PubChem BioAssay AID1963444 (Molecular Pharmacology Branch, DTP, NCI, 2024)
# Values joined by “and” are separate entries in the source; they are usually repeats but may differ in a detail not shown here. Equal values may be shown once.
# Test system: HSSY-II complex spheroid growth, percent test/control
# Assay: Anticancer human tumor HSSY-II cell line growth inhibition [Asc];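 further: spheroids exposed to drug for 7 days before reading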
# Details: for viability, T/C: stronger effect = lower value
# Procedure, shortened: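 Complex solid-tumor spheroids incorporating human endothelial and mesenchymal stem cells received single agents or combinations over half-log dilution ranges anchored to clinical Cmax.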
# [1] = curve of first compound, second compound 0.1 µM
# [2] = curve of first compound, second compound 0.316 µM
# [3] = curve of first compound, second compound 1 µM
# [4] = curve of first compound, second compound 3.16 µM
# [5] = curve of first compound, second compound 10 µM
# [6] = second compound 0.1 µM, first compound 0.0316 µM
# [7] = second compound 0.1 µM, first compound 0.1 µM
# [8] = second compound 0.316 µM, first compound 0.0316 µM
# [9] = second compound 0.316 µM, first compound 0.1 µM
# [10] = second compound 1 µM, first compound 0.0316 µM
# [11] = second compound 1 µM, first compound 0.1 µM
# [12] = second compound 3.16 µM, first compound 0.0316 µM
# [13] = second compound 3.16 µM, first compound 0.1 µM
# [14] = second compound 10 µM, first compound 0.0316 µM
# [15] = second compound 10 µM, first compound 0.1 µM
compound,measurement,setting,value
O=C(c1cc(Cc2n[nH]c(=O)c3ccccc23)ccc1F)N1CCN(C(=O)C2CC2)CC1 + Cc1c(S(C)(=O)=O)c(-c2cc(F)cc(N3CCN(c4ccc(NS(=O)(=O)c5ccc(NC(CCN6CCC(C(=O)OCCCP(=O)(O)O)CC6)CSc6ccccc6)c(S(=O)(=O)C(F)(F)F)c5)cc4)CC3)c2)c(-c2ccc(Cl)cc2)n1C(C)C,IC50,[1],2440 nM
same,IC50,[2],1960 nM
same,IC50,[3],1500 nM
same,IC50,[4],1810 nM
same,IC50,[5],1460 nM
same,"viability, T/C",[6],103%
same,"viability, T/C",[7],98.9%
same,"viability, T/C","second compound 0.1 µM, first compound 0.316 µM",93%
same,"viability, T/C","second compound 0.1 µM, first compound 1 µM",77.8%
same,"viability, T/C","second compound 0.1 µM, first compound 3.16 µM",41.7%
same,"viability, T/C","second compound 0.1 µM, first compound 10 µM",8.94%
same,"viability, T/C",[8],82.7%
same,"viability, T/C",[9],88.3%
same,"viability, T/C","second compound 0.316 µM, first compound 0.316 µM",86.8%
same,"viability, T/C","second compound 0.316 µM, first compound 1 µM",78.1%
same,"viability, T/C","second compound 0.316 µM, first compound 3.16 µM",29.8%
same,"viability, T/C","second compound 0.316 µM, first compound 10 µM",6.49%
same,"viability, T/C",[10],81.8%
same,"viability, T/C",[11],92.8%
same,"viability, T/C","second compound 1 µM, first compound 0.316 µM",76.2%
same,"viability, T/C","second compound 1 µM, first compound 1 µM",64.1%
same,"viability, T/C","second compound 1 µM, first compound 3.16 µM",26.4%
same,"viability, T/C","second compound 1 µM, first compound 10 µM",5.63%
same,"viability, T/C",[12],93.2%
same,"viability, T/C",[13],92%
same,"viability, T/C","second compound 3.16 µM, first compound 0.316 µM",82.5%
same,"viability, T/C","second compound 3.16 µM, first compound 1 µM",76%
same,"viability, T/C","second compound 3.16 µM, first compound 3.16 µM",26.5%
same,"viability, T/C","second compound 3.16 µM, first compound 10 µM",3.28%
same,"viability, T/C",[14],83.5%
same,"viability, T/C",[15],90.2%
same,"viability, T/C","second compound 10 µM, first compound 0.316 µM",78.8%
same,"viability, T/C","second compound 10 µM, first compound 1 µM",66.7%
same,"viability, T/C","second compound 10 µM, first compound 3.16 µM",16.9%
same,"viability, T/C","second compound 10 µM, first compound 10 µM",2.61%
COc1c(OCCCN2CCOCC2)ccc2c3n(c(=NC(=O)c4cnc(N)nc4)nc12)CCN3 + CCN1C(C(=O)NC23CCC(C(=O)O)(CC2)CC3)C(c2cccc(Cl)c2F)C2(C(=O)Nc3cc(Cl)ccc32)C12CCCCC2,IC50,"curve of first compound, second compound 0.03 µM",26.9 nM
same,IC50,"curve of first compound, second compound 0.0949 µM",3.62 nM
same,IC50,"curve of first compound, second compound 0.3 µM",< 3.16 nM
same,IC50,"curve of first compound, second compound 0.949 µM",< 3.16 nM
same,IC50,"curve of first compound, second compound 3 µM",< 3.16 nM
same,"viability, T/C","second compound 0.03 µM, first compound 0.00316 µM",83.3%
same,"viability, T/C","second compound 0.03 µM, first compound 0.01 µM",70.4%
same,"viability, T/C","second compound 0.03 µM, first compound 0.0316 µM",42.1%
same,"viability, T/C","second compound 0.03 µM, first compound 0.1 µM",32.5%
same,"viability, T/C","second compound 0.03 µM, first compound 0.316 µM",21%
same,"viability, T/C","second compound 0.03 µM, first compound 1 µM",8.92%
same,"viability, T/C","second compound 0.0949 µM, first compound 0.00316 µM",50.1%
same,"viability, T/C","second compound 0.0949 µM, first compound 0.01 µM",44.8%
same,"viability, T/C","second compound 0.0949 µM, first compound 0.0316 µM",27.9%
same,"viability, T/C","second compound 0.0949 µM, first compound 0.1 µM",18.8%
same,"viability, T/C","second compound 0.0949 µM, first compound 0.316 µM",11.1%
same,"viability, T/C","second compound 0.0949 µM, first compound 1 µM",5.81%
same,"viability, T/C","second compound 0.3 µM, first compound 0.00316 µM",27.8%
same,"viability, T/C","second compound 0.3 µM, first compound 0.01 µM",18.8%
same,"viability, T/C","second compound 0.3 µM, first compound 0.0316 µM",13.5%
same,"viability, T/C","second compound 0.3 µM, first compound 0.1 µM",9.78%
same,"viability, T/C","second compound 0.3 µM, first compound 0.316 µM",5.2%
same,"viability, T/C","second compound 0.3 µM, first compound 1 µM",1.51%
same,"viability, T/C","second compound 0.949 µM, first compound 0.00316 µM",5.84%
same,"viability, T/C","second compound 0.949 µM, first compound 0.01 µM",4.85%
same,"viability, T/C","second compound 0.949 µM, first compound 0.0316 µM",3.58%
same,"viability, T/C","second compound 0.949 µM, first compound 0.1 µM",2.14%
same,"viability, T/C","second compound 0.949 µM, first compound 0.316 µM",1.08%
same,"viability, T/C","second compound 0.949 µM, first compound 1 µM",0.52%
same,"viability, T/C","second compound 3 µM, first compound 0.00316 µM",1.52%
same,"viability, T/C","second compound 3 µM, first compound 0.01 µM",1.05%
same,"viability, T/C","second compound 3 µM, first compound 0.0316 µM",0.78%
same,"viability, T/C","second compound 3 µM, first compound 0.1 µM",0.45%
same,"viability, T/C","second compound 3 µM, first compound 0.316 µM",0.29%
same,"viability, T/C","second compound 3 µM, first compound 1 µM",0.25%
NC1CCC(NC2CC2c2ccccc2)CC1 (configuration not stated) + Cc1c(S(C)(=O)=O)c(-c2cc(F)cc(N3CCN(c4ccc(NS(=O)(=O)c5ccc(NC(CCN6CCC(C(=O)OCCCP(=O)(O)O)CC6)CSc6ccccc6)c(S(=O)(=O)C(F)(F)F)c5)cc4)CC3)c2)c(-c2ccc(Cl)cc2)n1C(C)C,IC50,[1],> 100 nM
same,IC50,[2],> 100 nM
same,IC50,[3],> 100 nM
same,IC50,[4],> 100 nM
same,IC50,[5],> 100 nM
same,"viability, T/C","second compound 0.1 µM, first compound 0.000316 µM",58.9%
same,"viability, T/C","second compound 0.1 µM, first compound 0.001 µM",69.2%
same,"viability, T/C","second compound 0.1 µM, first compound 0.00316 µM",64%
same,"viability, T/C","second compound 0.1 µM, first compound 0.01 µM",56.5%
same,"viability, T/C",[6],60.3%
same,"viability, T/C",[7],66.5%
same,"viability, T/C","second compound 0.316 µM, first compound 0.000316 µM",77%
same,"viability, T/C","second compound 0.316 µM, first compound 0.001 µM",67.3%
same,"viability, T/C","second compound 0.316 µM, first compound 0.00316 µM",58.9%
same,"viability, T/C","second compound 0.316 µM, first compound 0.01 µM",60.6%
same,"viability, T/C",[8],60%
same,"viability, T/C",[9],64.5%
same,"viability, T/C","second compound 1 µM, first compound 0.000316 µM",70.3%
same,"viability, T/C","second compound 1 µM, first compound 0.001 µM",60.8%
same,"viability, T/C","second compound 1 µM, first compound 0.00316 µM",57.5%
same,"viability, T/C","second compound 1 µM, first compound 0.01 µM",59%
same,"viability, T/C",[10],60.6%
same,"viability, T/C",[11],62.8%
same,"viability, T/C","second compound 3.16 µM, first compound 0.000316 µM",73.1%
same,"viability, T/C","second compound 3.16 µM, first compound 0.001 µM",62.1%
same,"viability, T/C","second compound 3.16 µM, first compound 0.00316 µM",60.8%
same,"viability, T/C","second compound 3.16 µM, first compound 0.01 µM",61.1%
same,"viability, T/C",[12],59.9%
same,"viability, T/C",[13],61.4%
same,"viability, T/C","second compound 10 µM, first compound 0.000316 µM",66%
same,"viability, T/C","second compound 10 µM, first compound 0.001 µM",66.5%
same,"viability, T/C","second compound 10 µM, first compound 0.00316 µM",70.2%
same,"viability, T/C","second compound 10 µM, first compound 0.01 µM",57.9%
same,"viability, T/C",[14],62.3%
same,"viability, T/C",[15],66.6%
NC(=O)C(=Cn1cnc(-c2cc(C(F)(F)F)cc(C(F)(F)F)c2)n1)c1cncnc1,"viability, T/C",compound 0.000949 µM,97.2% and 85.3% and 90.9%
same,"viability, T/C",compound 0.003 µM,94.1% and 76.9% and 88.4%
same,"viability, T/C",compound 0.00949 µM,67.6% and 69.8% and 61.6%
same,"viability, T/C",compound 0.03 µM,46.4% and 29.8% and 40.1%
same,"viability, T/C",compound 0.0949 µM,18.6% and 11.1% and 9.98%
same,"viability, T/C",compound 0.3 µM,1.34% and 1.15% and 1.13%
same,IC50,curve of compound,23.9 nM and 16.6 nM and 17.7 nM
